Test results: patent US20190169218A1, “AMPHIPATHIC COMPOUND HAVING NOVEL PENTA-SACCHARIDE HYDROPHILIC GROUP AND USE THEREOF” (Industry-University Cooperation Foundation Hanyang …, priority 2016, published 2019)

Key:
[1] = biological target: T1, human β2 adrenergic receptor (β2AR) (Homo sapiens, UniProt P07550); assay: extraction and solubilization of β2AR directly from cell membranes ([3H]-DHA activity, SEC); conditions: for SEC peak of extracted β2AR: buffer not containing amphipathic compounds
T1 construct: Flag; made in house
Procedure: The best, PSE-C11, among tested PSAs/PSEs was used to extract β2ARs directly from the cell membranes. Receptors were treated with 1.0 wt % PSE-C11 or DDM, and the activity of the receptors solubilized in PSE-C11 or DDM was measured using a radiolabeled ligand, [^3H]-DHA.
Specifically, experiments to extract and solubilize receptors from the cell membranes were performed as follows. 10 mL of a PSE-C11 amphipathic compound buffer (20 mM HEPES (pH 7.5), 100 mM NaCl, 1.0 wt % PSE-C11) was added to 1 g of an insect cell (Sf9) pellet expressing β2ARs. The mixture was stirred for solubilization for 1 hour. After performing centrifugation at 12,000 g for 20 minutes, a supernatant was collected and loaded onto a M1 Flag column in the presence of 2 mM CaCl2. The column was washed with a PSE-C11 buffer (20 mM HEPES (pH 7.5), 100 mM NaCl, 0.2 wt % amphipathic compound). Receptors were eluted with 20×CMC PSE-C11, 5 mM EDTA and 0.2 mg/mL free Flag peptides. To measure the activity of the receptors solubilized and purified by DDM or PSE-C11, 0.2 pmol of β2ARs was incubated with […] [^3H]-DHA and each amphipathic compound at room temperature for 30 minutes, and the activity of β2ARs was measured. The following procedure was performed in the same manner as described in Example 9-3. Each measurement was performed three times. The receptors solubilized in 20×CMC PSE-C11 or 20×CMC DDM were also applied to SEC under a buffer (20 mM HEPES (pH 7.5), 100 mM NaCl) not containing an amphipathic compound (PSE-C11 or DDM).

[2] = test system: T4L-β2AR-Gs or β2AR-Gs complexes; conditions: purified by DDM, 4° C., reported in the prior art; cited from earlier work
[3] = biological target: T2, boron transporter (BOR1) BOR1-GFP fusion protein (Arabidopsis thaliana, UniProt Q8VYR7); assay: solubilization (extraction) of BOR1-GFP fusion protein from membranes; conditions: amphipathic compound at 1.0 wt %
T2 construct: made in house; host or cells: Saccharomyces cerevisiae FGY217
Procedure: The ability of PSAs and PSEs to solubilize membrane proteins and to stabilize the structures of membrane proteins was evaluated using boron transporter (BOR1), a membrane protein. BOR1 was isolated from Arabidopsis thaliana, and was expressed in the form of a fusion protein having a GFP tag at the C-terminus in Saccharomyces cerevisiae FGY217 cells. This fusion protein has been proven to have boron transporting activity and is therefore involved in both structural and functional analysis of membrane proteins.
The ability of amphipathic compound PSAs and PSEs to solubilize the boron transporter (BOR1) membrane protein was evaluated.
Specifically, membranes containing BOR1-GFP fusion proteins were treated with an existing amphipathic compound (DDM), PSAs (PSA-C9, PSA-C10 and PSA-C11), or PSEs (PSE-C9, PSE-C11 and PSE-C13) at a concentration of 1.0 wt %. The solubilization efficiencies of PSA-C9, PSA-C10 and PSE-C9 were about 80% similar to the solubilization efficiency of DDM. In particular, the BOR1-GFP protein was quantitatively extracted (˜100%) using PSE-C11 having medium length chains, thus confirming that PSE-C11 is particularly useful for solubilization of BOR1-GFP.
Specifically, Arabidopsis thaliana-derived BOR1 was expressed in the form of a fusion protein having a GFP tag at the C-terminus in Saccharomyces cerevisiae FGY217 cells. The cells were grown in an URA-medium supplemented with 0.1% glucose. 2% galactose was added to the cell culture to induce protein expression and the cells were cultured at 20° C. for 18 hours (see Drew, D. et al., Nat. Protoc. 2008, 3, 784-798.). After culture, the cells were harvested and used to obtain the cell membranes (see Leung, J. et al., Protein Expr. Purif. 2010, 72, 139-146.). Membranes containing BOR1-GFP fusion proteins were diluted to a final total protein concentration of 2.8 mg/mL in PBS (pH7.4) supplemented with 1 wt % DDM, 1 wt % PSAs (PSA-C9, PSA-C10 or PSA-C11) or 1 wt % PSEs (PSE-C9, PSE-C11 or PSE-C13). The diluted samples were incubated at 4° C. for 1 hour with gentle shaking, and insoluble substances were removed by centrifugation at 14,000 g for 1 hour at 4° C. Supernatants containing the dissolved protein samples were incubated for 10 minutes at the specified temperature (35, 40, 45 or 50° C.), and strongly agglutinated proteins were removed by centrifugation at 14,000 g for 10 minutes at 4° C. 200 μL aliquots were taken from the supernatant and injected into a Superose 6 10/300 column equilibrated with 20 mM Tris-HCl (pH 7.5), 150 mM NaCl and 0.03% DDM. Each elution fraction was collected from a retention volume of 6.4 mL (i.e., after 6.4 mL of solution had passed), and added to a well of a clear bottom 96-well plate at a volume of 200 μL. GFP fluorescence generated in each fraction was measured using an excitation wavelength of 470 nm and an emission wavelength of 512 nm.

T1 sequence (P07550 whole entry): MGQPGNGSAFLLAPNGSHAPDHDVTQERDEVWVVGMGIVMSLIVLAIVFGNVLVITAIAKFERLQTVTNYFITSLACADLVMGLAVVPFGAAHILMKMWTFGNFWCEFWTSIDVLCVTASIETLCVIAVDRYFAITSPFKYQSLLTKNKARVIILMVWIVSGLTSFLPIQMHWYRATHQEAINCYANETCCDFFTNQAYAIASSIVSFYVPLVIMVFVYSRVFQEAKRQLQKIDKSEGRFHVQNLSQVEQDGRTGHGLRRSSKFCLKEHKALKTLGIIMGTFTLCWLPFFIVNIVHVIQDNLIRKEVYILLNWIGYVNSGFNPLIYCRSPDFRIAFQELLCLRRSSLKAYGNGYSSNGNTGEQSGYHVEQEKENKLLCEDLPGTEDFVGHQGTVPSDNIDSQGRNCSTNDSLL

Compound	SEC peak of extracted β2AR [1]	stability of T4L-β2AR-Gs complexes [2]	solubilization efficiency of BOR1-GFP [3]	activity of β2AR extracted from cell membranes ([3H]-DHA) ([1]; 1.0 wt % PSE-C11 or DDM)
CCCCCCCCCCCCO[C@@H]1O[C@H](CO)[C@@H](O[C@H]2O[C@H](CO)[C@@H](O)[C@H](O)[C@H]2O)[C@H](O)[C@H]1O [DDM, n-dodecyl-β-D-maltopyranoside, reference compound]	no peak corresponding to the proteins was observed	complex separation was observed even after 2 days of incubation	about 80%	–
CCCCCCCCCCCOCC(COCCCCCCCCCCC)O[C@@H]1OC(CO[C@@H]2OC(CO)[C@@H](O)C(O)C2O)[C@@H](O[C@@H]2OC(CO)[C@@H](O)C(O)C2O)C(O[C@@H]2OC(CO)[C@@H](O)C(O)C2O)C1O[C@@H]1OC(CO)[C@@H](O)C(O)C1O (stereo partly drawn) [PSE-C11]	a distinct monodisperse peak	–	~100%	higher activity than proteins extracted by DDM
